Experimental data published in patent US20110257171A1, “NOVEL IMIDAZO[1,2-A]PYRIDINE DERIVATIVES, METHOD FOR THE PREPARATION THEREOF, USE THEREOF AS MEDICAMENTS, PHARMACEUTICAL COMPOSITIONS AND NOVEL USE IN PARTICULAR AS MET INHIBITORS” (SANOFI-AVENTIS, priority 2008, published 2011).
Counter-ions that a name gives are not always drawn.

Tests used:
[1] = tested on: HCT116 cells and MKN45 cells; experiment: Test C: measurement of cell proliferation by 14C-thymidine pulse; type: cell-based; conditions: 14C-thymidine incorporation, 96 h of treatment; cell line not given
Procedure: The cells are seeded into Cytostar 96-well plates in 180 μl for 4 hours at 37° C. and 5% CO2: HCT116 cells in a proportion of 2500 cells per well in DMEM medium+10% foetal calf serum+1% L-glutamine, and MKN45 cells in a proportion of 7500 cells per well in RPMI medium+10% foetal calf serum+1% L-glutamine. After these 4 hours of incubation, the products are added in 10 μl as a […] concentrated solution according to the dilution method mentioned for the ELISA. The products are tested at 10 concentrations in duplicate from 10 000 nM to 0.3 nM with an increment of 3.
After treatment for 72 h, 10 μl of ^14C-thymidine at 10 μCi/ml are added so as to obtain 0.1 μCi per well. The ^14C-thymidine incorporation is measured on a Micro-Beta machine (Perkin-Elmer) after 24 hours of pulse and 96 h of treatment.
All the steps of the assay are automated on BIOMEK 2000 or TECAN stations.

[2] = target: T1, MET (Homo sapiens, UniProt P08581); experiment: Test B: inhibition of the autophosphorylation of MET, ELISA technique (pppY1230, 1234, 1235) in MKN45 cells; type: cell-based; design: endogenous in cells; host or cells: MKN45 cells; conditions: 1 h treatment, phosphoMET ELISA
Procedure: B) Test B: Inhibition of the Autophosphorylation of Met; ELISA Technique (pppY1230, 1234, 1235) a) Cell lysates: MKN45 cells are seeded into 96-well plates (cell coat BD polylysine) at 20 000 cells/well in 200 μl of RPMI medium+10% FCS+1% L-glutamine. They are left to adhere for 24 hours in an incubator.
The cells are treated the day after seeding with the products at 6 concentrations, in duplicate, for 1 h. At least 3 control wells are treated with the same final amount of DMSO.
Product dilution: Stock at 10 mM in pure DMSO—range from 10 mM to 30 μM with an increment of 3 in pure DMSO—intermediate dilutions to 1/50 in culture medium and then removal of 10 μl added directly to the cells (200 μl): final range of 10 000 to 30 nM.
At the end of the incubation, the supernatant is carefully removed and rinsing is performed with 200 μl of PBS. Next, 100 μl of lysis buffer are placed directly in the wells on ice and incubated at 4° C. for 30 minutes. Lysis buffer: 10 mM Tris HCl, pH 7.4, 100 mM NaCl, 1 mM EDTA, 1 mM EGTA, 1% Triton X-100, 10% glycerol, 0.1% SDS, 0.5% deoxycholate, 20 mM NaF, 2 mM Na3VO4, 1 mM PMSF and cocktail of antiproteases.
The 100 μl of lysates are transferred into a V-bottomed polypropylene plate and the ELISA is performed immediately, or the plate is frozen at −80° C.
70 μl of kit dilution buffer+30 μL of cell lysate, or 30 μl of lysis buffer for the blanks, are added to each well of the kit plate. Incubation is carried out for 2 h with gentle agitation at ambient temperature.
The wells are rinsed 4 times with 400 μl of kit washing buffer. Incubation is carried out with 100 μl of anti-phospho MET antibody for 1 hour at ambient temperature.
The wells are rinsed 4 times with 400 μl of kit washing buffer. Incubation is carried out with 100 μl of anti-rabbit HRP antibody for 30 minutes at ambient temperature (except for the wells of chromogen alone).
The wells are rinsed 4 times with 400 μl of kit washing buffer. 100 μL of chromogen are introduced and incubation is carried out for 30 minutes in the dark at ambient temperature.
The reaction is stopped with 100 μl of stop solution. The plate is read without delay at […], 0.1 second on a Wallac Victor plate reader.
Target sequence in this assay (P08581 25-1390): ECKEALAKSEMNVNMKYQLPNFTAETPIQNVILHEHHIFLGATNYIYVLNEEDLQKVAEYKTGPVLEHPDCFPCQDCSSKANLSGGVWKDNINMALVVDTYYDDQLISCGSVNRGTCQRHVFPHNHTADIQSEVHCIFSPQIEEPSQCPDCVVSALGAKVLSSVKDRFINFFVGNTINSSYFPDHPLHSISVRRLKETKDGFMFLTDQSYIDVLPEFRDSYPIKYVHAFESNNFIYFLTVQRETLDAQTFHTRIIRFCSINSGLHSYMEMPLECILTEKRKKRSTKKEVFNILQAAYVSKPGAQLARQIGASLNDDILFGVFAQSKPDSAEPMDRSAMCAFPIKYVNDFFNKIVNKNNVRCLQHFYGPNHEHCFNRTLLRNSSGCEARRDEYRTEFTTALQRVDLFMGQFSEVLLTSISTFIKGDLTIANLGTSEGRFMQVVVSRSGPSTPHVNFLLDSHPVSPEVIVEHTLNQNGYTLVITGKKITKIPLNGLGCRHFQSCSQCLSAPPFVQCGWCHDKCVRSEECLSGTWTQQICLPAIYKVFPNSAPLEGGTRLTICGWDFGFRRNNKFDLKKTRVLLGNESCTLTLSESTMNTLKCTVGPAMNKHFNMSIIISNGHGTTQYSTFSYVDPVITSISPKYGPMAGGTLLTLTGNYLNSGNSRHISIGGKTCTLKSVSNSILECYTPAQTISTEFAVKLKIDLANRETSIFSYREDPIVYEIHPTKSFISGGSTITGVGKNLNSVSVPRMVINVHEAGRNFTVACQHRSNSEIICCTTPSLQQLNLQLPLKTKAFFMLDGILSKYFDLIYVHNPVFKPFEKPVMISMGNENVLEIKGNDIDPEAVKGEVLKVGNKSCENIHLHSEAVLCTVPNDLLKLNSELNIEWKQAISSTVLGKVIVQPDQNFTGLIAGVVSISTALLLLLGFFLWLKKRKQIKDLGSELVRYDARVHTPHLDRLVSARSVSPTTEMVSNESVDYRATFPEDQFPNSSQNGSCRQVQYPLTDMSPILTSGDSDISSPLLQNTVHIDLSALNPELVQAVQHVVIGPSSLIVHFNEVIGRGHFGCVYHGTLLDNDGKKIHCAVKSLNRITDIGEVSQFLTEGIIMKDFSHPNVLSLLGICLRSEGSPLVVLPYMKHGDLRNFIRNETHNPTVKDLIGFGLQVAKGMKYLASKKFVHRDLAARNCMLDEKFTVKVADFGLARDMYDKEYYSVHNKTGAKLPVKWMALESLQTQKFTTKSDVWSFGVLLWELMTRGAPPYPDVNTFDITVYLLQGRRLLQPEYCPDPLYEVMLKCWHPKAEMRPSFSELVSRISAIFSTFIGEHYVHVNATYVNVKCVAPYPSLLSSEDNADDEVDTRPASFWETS

[3] = target: T1, MET; experiment: Test A: HTRF MET assay in 96-well format; type: biochemical; design: The His-Tev-MET (956-1390) recombinant DNA in pFastBac (Invitrogen) is transfected into insect cells; His (N, cleaved yes); Tev cleavage site (N); made in house; host or cells: SF21 insect cells (baculovirus, pFastBac); conditions: MET 5 nM, 10 μM ATP
Procedure: The His-Tev-MET (956-1390) recombinant DNA in pFastBac (Invitrogen) is transfected into insect cells and, after several viral amplification steps, the final baculovirus stock is tested for the expression of the protein of interest.
After infection for 72 h at 27° C. with the recombinant virus, SF21 cell cultures are harvested by centrifugation and the cell pellets are stored at −80° C.
The cell pellets are resuspended in the lysis buffer (buffer A [50 mM HEPES, pH 7.5, 250 mM NaCl, 10% glycerol, 1 mM TECP]; +cocktail of protease inhibitors, Roche Diagnostics, without EDTA, ref 1873580), stirred at 4° C. until the mixture is homogeneous, and then lysed mechanically using a “Dounce” type apparatus.
After centrifugation, the lysis supernatant is incubated for 2 h at 4° C. with nickel chelate resin (His-Trap 6 Fast Flow™, GE HealthCare). After washing with 20 volumes of buffer A, the suspension is packed into a column, and the proteins are eluted with a gradient of buffer B (buffer A+290 mM imidazole).
The fractions containing the protein of interest, for the purpose of electrophoretic analysis (SDS PAGE), are combined, concentrated by ultrafiltration (10 kDa cut-off) and injected onto an exclusion chromatography column (Superdex® 200, GE HealthCare) equilibrated in buffer A.
After enzymatic cleavage of the histidine tag, the protein is reinjected onto a new IMAC nickel chelate chromatography column (His-Trap 6 Fast Flow™ GE HealthCare) equilibrated in buffer A. The fractions eluted with a gradient of buffer B and containing the protein of interest after electrophoresis (SDS PAGE) are finally combined and stored at −80° C.
For the production of autophosphorylated protein, the previous fractions are incubated for 1 h at ambient temperature after the addition of 2 mM ATP, 2 mM MgCl2 and 4 mM Na3VO4. After the reaction has been stopped with 5 mM of EDTA, the reaction mixture is injected onto a HiPrep desalifying column (GE HealthCare) pre-equilibrated in buffer A+4 mM Na3VO4, and the fractions containing the protein of interest (SDS PAGE analysis) are combined and stored at −80° C. The degree of phosphorylation is verified by mass spectrometry (LC-MS) and by peptide mapping.
MET at a final concentration of 5 nM is incubated in a final volume of 50 μl of enzymatic reaction in the presence of the test molecule (for a final concentration range of from 0.17 nM to 10 μM, 3% DMSO final concentration) in 10 mM MOPS buffer, pH 7.4, 1 mM DTT, 0.01% Tween 20. The reaction is initiated with the substrate solution to obtain final concentrations of 1 μg/ml poly-(GAT), 10 μM ATP and 5 mM MgCl2. After incubation for 10 min at ambient temperature, the reaction is stopped with a 30 μl mix so as to obtain a final solution of 50 mM Hepes, pH 7.5, 500 mM potassium fluoride, 0.1% BSA and 133 mM EDTA in the presence of 80 ng of streptavidin 61 SAXLB Cis-Bio Int. and 18 ng of anti-phosphotyrosine Mab PT66-Europium Cryptate per well. After incubation for 2 hours at ambient temperature, the reading is taken at 2 wavelengths, 620 nm and 665 nm, on a reader for the TRACE/HTRF technique, and the % inhibition is calculated from the 665/620 ratios.
Target sequence in this assay (P08581 956-1390): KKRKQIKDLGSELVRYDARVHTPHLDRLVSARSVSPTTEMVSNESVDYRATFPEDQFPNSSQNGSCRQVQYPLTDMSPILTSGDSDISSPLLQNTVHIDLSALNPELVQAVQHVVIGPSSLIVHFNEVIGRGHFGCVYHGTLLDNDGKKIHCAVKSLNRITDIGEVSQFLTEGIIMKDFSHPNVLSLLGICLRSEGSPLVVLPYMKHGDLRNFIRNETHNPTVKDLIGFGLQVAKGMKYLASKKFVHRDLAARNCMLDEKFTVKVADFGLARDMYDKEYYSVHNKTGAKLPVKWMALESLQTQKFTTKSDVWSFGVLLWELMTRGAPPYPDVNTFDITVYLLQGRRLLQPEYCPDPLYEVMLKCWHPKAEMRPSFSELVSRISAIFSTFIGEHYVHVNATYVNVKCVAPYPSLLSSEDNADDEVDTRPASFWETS

O=C(Nc1nc2ccc(Sc3cnc4ccc(-c5cnn(C6CCNCC6)c5)cn34)cc2s1)C1CC1 (as salt: hydrochloride) [Example 12, N-[6-({6-[1-(piperidin-4-yl)1H-pyrazol-4-yl]imidazo[1,2-a]pyridin-3-yl}sulphanyl)-1,3-benzothiazol-2-yl]cyclopropanecarboxamide]
melting point: 230 °C

O=C(Nc1nc2ccc(Sc3cnc4ccccn34)cc2s1)C1CC1 [Example 1, N-{[6-(imidazo[1,2-a]pyridin-3-yl)sulphanyl]-1,3-benzothiazol-2-yl}cyclopropanecarboxamide]
IC50 [1]: < 1000 nM | IC50 [2]: < 100 nM | IC50 [3]: < 100 nM

Nc1nc2ccc(Sc3cnc4ccc(-c5ccc(F)cc5)cn34)cc2s1 [Example 2, 6-{[6-(4-fluorophenyl)imidazo[1,2-a]pyridin-3-yl]sulphanyl}-1,3-benzothiazol-2-amine]
IC50 [1]: < 1000 nM | melting point: 258 °C | IC50 [2]: > 500 nM | IC50 [3]: < 100 nM

O=C(Nc1nc2ccc(Sc3cnc4ccc(-c5ccc(F)cc5)cn34)cc2s1)C1CC1 [Example 3, N-(6-{[6-(4-fluorophenyl)imidazo[1,2-a]pyridin-3-yl]sulphanyl}-1,3-benzothiazol-2-yl)cyclopropanecarboxamide]
IC50 [1]: < 1000 nM | melting point: 265 °C | IC50 [2]: < 100 nM | IC50 [3]: < 100 nM

CC(=O)Nc1nc2ccc(Sc3cnc4ccc(-c5ccc(F)cc5)cn34)cc2s1 [Example 4, N-(6-{[6-(4-fluorophenyl)imidazo[1,2-a]pyridin-3-yl]sulphanyl}-1,3-benzothiazol-2-yl)acetamide]
IC50 [1]: < 1000 nM | IC50 [2]: < 100 nM | IC50 [3]: < 100 nM

COCCNC(=O)Nc1nc2ccc(Sc3cnc4ccc(-c5ccc(F)cc5)cn34)cc2s1 [Example 5, 1-(6-{[6-(4-fluorophenyl)imidazo[1,2-a]pyridin-3-yl]sulphanyl}-1,3-benzothiazol-2-yl)-3-(2-methoxyethyl)urea]
IC50 [1]: < 1000 nM | melting point: > 260 °C | IC50 [2]: < 100 nM | IC50 [3]: < 100 nM

O=C(NCCN1CCOCC1)Nc1nc2ccc(Sc3cnc4ccc(-c5ccc(F)cc5)cn34)cc2s1 [Example 6, 1-(6-{[6-(4-fluorophenyl)imidazo[1,2-a]pyridin-3-yl]sulphanyl}-1,3-benzothiazol-2-yl)-3-[2-(morpholin-4-yl)ethyl]urea]
IC50 [1]: < 1000 nM | IC50 [2]: < 100 nM | IC50 [3]: < 100 nM

Cn1cc(-c2ccc3ncc(Sc4ccc5nc(NC(=O)C6CC6)sc5c4)n3c2)cn1 [Example 7, N-(6-{[6-(1-methyl-1H-pyrazol-4-yl)imidazo[1,2-a]pyridin-3-yl]sulphanyl}-1,3-benzothiazol-2-yl)cyclopropanecarboxamide]
IC50 [1]: < 1000 nM | IC50 [2]: < 100 nM | IC50 [3]: < 100 nM

O=C(Nc1nc2ccc(Sc3cnc4ccc(-c5cn[nH]c5)cn34)cc2s1)C1CC1 [Example 8, N-(6-{[6-(1H-pyrazol-4-yl)imidazo[1,2-a]pyridin-3-yl]sulphanyl}-1,3-benzothiazol-2-yl)cyclopropanecarboxamide]
IC50 [1]: < 1000 nM | IC50 [2]: < 100 nM | IC50 [3]: < 100 nM

O=C(Nc1nc2ccc(Sc3cnc4ccc(-c5cccc(F)c5)cn34)cc2s1)C1CC1 [Example 9, N-(6-{[6-(3-fluorophenyl)imidazo[1,2-a]pyridin-3-yl]sulphanyl}-1,3-benzothiazol-2-yl)cyclopropanecarboxamide]
IC50 [1]: < 1000 nM | melting point: > 260 °C | IC50 [2]: < 100 nM | IC50 [3]: < 100 nM

Cc1ccc(-c2ccc3ncc(Sc4ccc5nc(NC(=O)C6CC6)sc5c4)n3c2)cc1F [Example 10, N-(6-{[6-((3-fluoro-4-methyl)phenyl)imidazo[1,2-a]pyridin-3-yl]sulphanyl}-1,3-benzothiazol-2-yl)cyclopropanecarboxamide]
IC50 [1]: < 1000 nM | melting point: > 260 °C | IC50 [2]: < 100 nM | IC50 [3]: < 100 nM

CC(C)(C)OC(=O)N1CCC(n2cc(-c3ccc4ncc(Sc5ccc6nc(NC(=O)C7CC7)sc6c5)n4c3)cn2)CC1 [Example 11, tert-butyl 4-{4-[3-({2-[(cyclopropylcarbonyl)amino]-1,3-benzothiazol-6-yl}sulphanyl)imidazo[1,2-a]pyridin-6-yl]-1H-pyrazol-1-yl}piperidine-1-carboxylate]
IC50 [1]: < 1000 nM | melting point: 247 °C | IC50 [2]: < 100 nM | IC50 [3]: < 100 nM

O=C(Nc1nc2ccc(Sc3cnc4ccc(-c5cnn(C6CCNCC6)c5)cn34)cc2s1)C1CC1 [Example 12, N-[6-({6-[1-(piperidin-4-yl)1H-pyrazol-4-yl]imidazo[1,2-a]pyridin-3-yl}sulphanyl)-1,3-benzothiazol-2-yl]cyclopropanecarboxamide]
IC50 [1]: < 1000 nM | IC50 [2]: < 100 nM | IC50 [3]: < 100 nM
